In a melting point compilation (Tetko et al.; mined from patent text by program, amines drawn as free bases though some values may be those of a salt) one finds melting point data, which are given here for 88 molecules.

SMILES strings stand for the structures.

Molecule `COc1ccc(C(=O)Nc2ccccc2)cc1NS(=O)(=O)c1cc(Cl)cc(Cl)c1` had a melting point of 222 to 228 °C.

In the case of `CC(CCCc1cccnc1)NC(=O)C(O)c1ccccc1` (stereo not drawn), the melting point was 144 to 146 °C. As to `CC(C)C[C@H](NC(=O)OCc1ccccc1)C(=O)N[C@@H](Cc1ccccc1)C(=O)CSCc1ccccc1`, the melting point is 86 to 87 °C.

Consider `CN1CCC(c2ccc(Cl)c(Cl)c2)C(CO)C1` (stereo not drawn), for which the melting point was in the range of 109 to 111 °C. Turning to `COC(=O)C1CCN(CCc2ccc(OC)cc2)CC1`, the melting point is 66 to 68 °C. `COc1cc2c(c(Br)c1OC(C)=O)Sc1cc(C)ccc1N2` showed a melting point of 193 to 194 °C.

As to `CC12CC3OC3CC1CCC1C2CCC2(C)C(O)C(N3CCC4(CC3)OCCO4)CC12` (stereo not drawn), the melting point was in the range of 186 to 188 °C.

Molecule `COc1ccc(C(=O)c2cccc(CC(=O)O)c2N)cc1` registered a melting point of 117 to 118 °C.

Molecule `CSc1ccc2ccc(N3C(=O)c4ccccc4C3O)nc2n1` (stereo not drawn) gave a melting point of 210 °C. Molecule `O=[N+]([O-])C=C1NCCN1Cc1ccc(Cl)nc1` registered a melting point of 160 to 161 °C.

`N#Cc1ccccc1Nc1cc2c(cc1Nc1ccccc1C#N)C(=O)NC2=O` came in with a melting point of 279 to 280 °C. Then `COc1ncc(CNc2ccccc2C(=O)Nc2cccc(C(F)(F)F)c2)cc1Br`, with 110 to 111 °C. `O=C1CCC(N2C(=O)c3cccc(OCc4ccc(Cl)c(Cl)c4)c3C2=O)C(=O)N1` (stereo not drawn) came in with a melting point of 245 to 247 °C. Then `N#CC(C(=O)Nc1ccc(S(=O)C(F)(F)F)cc1)=C(O)C1CC1` (stereo not drawn), with 155 to 157 °C; and `COc1ccc([N+](=O)[O-])c(F)c1`, with 47 to 49 °C. In turn, `COC1Nc2c(OC(C)=O)cccc2C(=O)N2CCCC12` (stereo not drawn) came in with a melting point of 147 to 150 °C. Next, `Cc1c(-c2ncc(Cl)cc2F)nn(C)c1C#N`: 144 to 146 °C; `Cc1cc(F)ccc1-c1nc(NC2CCCCC2)nc2c1ccc(=O)n2-c1c(F)cccc1F`: 218 to 219 °C.

For the molecule `N#Cc1cnn2c(-c3ccccc3C(F)(F)F)ccnc12`, the melting point lay in the range of 196 to 197 °C.

As to `O=C(OC1CCN(Cc2cccc([N+](=O)[O-])c2)CC1)c1ccccc1`, the melting point fell in the range of 54 to 55 °C. `O=C(C=C(c1ccccc1)c1ccccc1)Nc1ccc(C(=O)O)cc1` showed a melting point of 222 to 224 °C.

The molecule `Cc1nc2nc[nH]c2c2nc(-c3ccccc3)nn12` had a melting point of 285 °C.

The molecule `COCCc1nc2c(N)nc3cc(OCc4ccccc4)ccc3c2n1CCCCNC(N)=O` displayed a melting point of 170 to 171 °C. Next, `CCCCCCCCCCCCCCCCNc1ccc(C#N)cc1`: 63 to 64 °C; `COc1cc(C(=O)O)ccc1CN1CCOc2ccc(NC(=O)OC3CCCC3)cc21`: 221 to 222 °C.

The molecule `COc1ccc(-c2nc(CCO)sc2-c2ccc(OC)cc2)cc1` registered a melting point of 101 to 104 °C.

As for `CCCCC(Cc1cc(C(C)(C)C)c(O)c(C(C)(C)C)c1)(C(=O)OC1CC(C)(C)N(C(C)=O)C(C)(C)C1)C(=O)OC1CC(C)(C)N(C(C)=O)C(C)(C)C1`, the melting point was in the range of 120 to 124 °C.

In the case of `O=[N+]([O-])c1cnc(N2CCN3CCC2CC3)nc1`, the melting point was 135 to 139 °C. Then `CC(C)(C)C(=O)C(=CC(=O)c1ccc(Cl)cc1)n1cncn1`, with 140 °C; and `COc1ccc2oc3cc(C#N)ccc3c(=O)c2c1`, with 254 to 255 °C. Next, `COC(=O)C1=C(C)NC(C)=C(C(=O)OC)C1c1ccccc1NC(C)=O`: 284 to 285 °C; `CCCCc1cc(Cn2cnc3c(N)nc4ccccc4c32)no1`: 201 to 203 °C; `CCOC(=O)C=Cc1cc(-c2ccc3c(c2)C(C)(C)CCC3(C)C)cs1`: 82 to 84 °C. Molecule `O=S(=O)(c1ccccc1)c1ccc2c(c1)NCC(C(F)F)(C(F)F)O2` registered a melting point of 100 to 113 °C. The molecule `Cc1cc2c(-c3ccccc3Cl)c(NC(=O)Nc3ccc(Cl)cc3)c(=O)n(C)c2cc1C` came in with a melting point of 207 to 209 °C. Then `CCCCCCCCCCCCCCCCSCC(CNS(=O)(=O)CCCCl)NC(=O)OC` (stereo not drawn), with 67 to 69 °C; and `N#Cc1cc(C(=O)NNC(=O)c2occc2-c2ccc(Oc3ccccc3)cc2)ccc1O`, with 199 to 200 °C; and `CC(C)Cn1c(=O)[nH]c(=O)c2nccnc21`, with 200 to 201 °C. Take `CC1(C)OCc2cc(C(O)c3c[nH]cn3)ccc2O1` (stereo not drawn): the melting point was determined as 96 °C.

Turning to `CN(C(=O)C(F)(F)F)c1cnn(-c2cccc(C(F)(F)F)c2)c(=O)c1-c1cccc(C(F)(F)F)c1`, the melting point was determined as 122 °C. `COc1ccc(CN(C)CCCOc2ccc(NC(=O)c3cccc4c(=O)c5cccc(C)c5[nH]c34)c(C)c2)cc1OC`: the melting point worked out at 146 °C. Next, `C=CC(=O)c1cc(OC)c(OC)c(OC)c1`: 46 to 47 °C; `OC(Cn1cncn1)(Cn1cncc1C(F)(F)F)c1ccc(Cl)cc1Cl` (stereo not drawn): 190 to 192 °C. Next, `O=C(N[C@H]1CC[C@H](O)CC1)c1cc(F)cnc1Cl`: 197 to 200 °C; `O=C(NC(=O)c1ccccn1)NC1CN2CCC1CC2` (stereo not drawn): 202 to 203 °C; `Fc1ccc(C23CNCC(CO2)O3)cc1` (stereo not drawn): 89 °C.

Molecule `CCOC(=O)c1cn(-c2nnnn2C)c2nc(Cl)c(F)cc2c1=O` gave a melting point of 210 to 215 °C. Then `O=C1c2cc(F)ccc2-n2c1nc1ccccc1c2=O`, with 273 to 276 °C; and `O=C(/C=C/c1ccc(N2CCCCC2)cc1)CC(=O)/C=C/c1ccc2cc[nH]c2c1`, with 91 to 96 °C. Take `CCCCCc1c(C(C)C)nc(C(C)C)c(CO)c1-c1ccc(F)cc1`: the melting point lay within 100 to 101 °C. Then `Cc1nc(C(F)(F)F)ccc1C(=O)C1=C(O)C2CC2C(C)(S(C)=O)C1=O` (stereo not drawn), with 160 °C. Next, `CCCc1c(C#N)c2ccc(C(=O)O)cc2n1Cc1ccccc1Cl`: 240 to 241 °C; `NC(=O)CCCCCCCOc1nc(-c2ccccc2)c(-c2ccccc2)n1-c1ccccc1`: 152 to 154 °C; `CC(=O)OCC1=C(C(=O)OCOC(=O)C(C)(C)C)N2C(=O)C(NC(=O)Cc3csc(=O)s3)C2SC1` (stereo not drawn): 135 °C.

Consider `O=CC(O)C(O)C(CO)OC1OC(CO)C(O)C(O)C1O` (stereo not drawn), for which the melting point is 171 to 176 °C. Next, `COc1ccc(C(=O)Nc2ccc3cccnc3n2)cc1`: 150 °C; `c1ccc(CON=C2CC(=NOCc3ccccc3)c3ccccc3-c3ccccc32)cc1`: 112 °C; `CCCCCn1c2ccc(CN3CCCCC3)cc2c2ccc(OC)cc21`: 64 to 65 °C. Then `CCC(=O)N1CCNC1=Nc1ccc(Cl)cc1Cl`, with 126 to 128 °C; and `C=C1[C@@H](NC(=O)C(F)(F)F)CC(O)O[C@H]1C` (stereo partly drawn), with 168 to 170 °C. Then `CC(C)(C)C(NC(=O)c1cc(Cl)cc(Cl)c1)Nc1c(Nc2cncc(C(F)(F)F)c2)c(=O)c1=O` (stereo not drawn), with 233 to 234 °C; and `Cn1ccnc1CCNS(=O)(=O)c1ccccc1[N+](=O)[O-]`, with 193 to 199 °C; and `CC[C@@H](NC(=O)N1CC(=O)NC[C@@H](Cc2cc(Cl)ccc2OC)C1=O)c1cccc(C(=O)O)c1`, with 121 to 123 °C. The molecule `CC1(C)CCC(C)(C)c2cc3c(cc21)CCc1cc(-c2ccc(C(=O)O)cc2)oc1-3` registered a melting point of 264 to 265 °C.

With `O=C(O)CC(CC(=O)O)Sc1nc2ccccc2s1`, the melting point fell in the range of 153 to 154 °C. Next, `O=C(N[C@H](Cc1ccc(F)cc1)C(=O)N1CCC(O)CC1)c1cc2ccccc2[nH]1`: 204 to 207 °C. Molecule `O=Cc1ccccc1OCCOc1ccccc1C=O` came in with a melting point of 129 °C. Then `CC(=O)OC1CCCC2=CCC3C4CCC(C(C)CCCC(C)C)C4(C)CCC3C21C` (stereo not drawn), with 65 to 66 °C. Next, `CC(=O)C1CCC2C3CCC4CC(O)(c5ccccc5)CCC4(C)C3CCC12C` (stereo not drawn): 182 to 184 °C. Then `O=Cc1c[nH]c2cccc(O)c12`, with 196 to 200 °C. `COc1ccc(C(=O)NNC(=O)C(F)(F)F)cc1` returned a melting point of 147 to 148 °C.

As for `CCS(=O)(=O)Nc1cc2occc(=O)c2cc1Oc1ccccc1`, the melting point lay within 216 to 218 °C. The molecule `CC(C)(C)OC(=O)N1CCC(CNC(=O)[C@@H]2CCCN2S(=O)(=O)c2ccc(Cl)c(CBr)c2Cl)CC1` gave a melting point of 80 °C. Next, `CC(C)(C)OC(=O)NCCOCCOCCNC(=O)CCCCC1SCC2NC(=O)NC21` (stereo not drawn): 106 to 108 °C.

For `CCCCS(=O)(=O)NC(CNS(=O)(=O)c1cccc(C(=O)C2CCC3(CCNCC3)CC2)c1)C(=O)O` (stereo not drawn), the melting point fell in the range of 225 to 235 °C. Then `O=C(O)C1=Cc2cc(S(=O)(=O)NCCc3ccccc3)ccc2OC1C(F)(F)F` (stereo not drawn), with 187 to 190 °C. Then `Oc1ccc2nc(Cc3ccc(Cl)cc3)oc2c1`, with 167 to 168 °C; and `COc1ccc2cccnc2c1N`, with 114 to 115 °C. Then `Cc1ccc2c(c1)C1c3cc4c(cc3OCC1NC2=O)OCO4` (stereo not drawn), with over 250 °C. For the molecule `N#Cc1ccc(-c2ccc(Cl)nn2)cc1`, the melting point is 236 to 238 °C. Then `Cc1ccc(C(=O)COc2ccc(F)cc2)cc1`, with 95 to 96 °C. Next, `O=c1ccc2c(-c3cccc([N+](=O)[O-])c3)nccc2[nH]1`: over 300 °C; `COc1ccc(-c2nnn(-c3ccc(C(F)(F)F)cc3Cl)c2N)cc1`: 130 to 131 °C; `Cc1c(C)n(CC(F)F)c2c(OCc3ccccc3)nncc12`: 128 to 131 °C. Then `CS(=O)c1ccc(C2=C(c3ccccc3)C(=O)C(C)(C)O2)c(F)c1` (stereo not drawn), with 149 to 150 °C; and `COC(=O)[C@@H]1CCCN1c1ccc(C)c([N+](=O)[O-])c1O`, with 111 to 114 °C.

For `CNCCC1=C(C#N)C(c2cccc3nonc23)c2c[nH]nc2N1` (stereo not drawn), the melting point worked out at 174 °C. Then `CC1(C)CC(OC(=O)c2ccc(CN(O)Cc3ccc(C(=O)OC4CC(C)(C)N(OC5CCCCC5)C(C)(C)C4)cc3)cc2)CC(C)(C)N1OC1CCCCC1`, with 163 to 166 °C.

What is called melting point is the temperature, or range, at which the solid turns liquid.
